From US20090209578A1, “CHEMICAL COMPOUNDS” (PFIZER INC, priority 2005, published 2009)

Biological target: HIV-1 fusion (gp160 induced cell-cell fusion; HeLa P4 cell line expressing CCR5 and CD4 / CHO-Tat10 cell line) (Homo sapiens, UniProt P51681)
Assay: gp160 induced cell-cell fusion assay
Type: cell-based
Conditions: HeLa P4 / CHO-Tat10 cells, read-out: IC50
Source text: Biol., 60, 147-52 (1996); and/or by using the intracellular calcium mobilisation assays as described by the same authors, and/or inhibiting cell fusion following procedures disclosed in Bradley et al., J Biomol Screen 9, 516-24 (2004).
The gp160 induced cell-cell fusion assay uses a HeLa P4 cell line and a CHO-Tat10 cell line.
The HeLa P4 cell line expresses CCR5 and CD4 and has been transfected with HIV-1 LTR-β-Galactosidase. The media for this cell line is Dulbecco modified eagle's medium (D-MEM) (without L-glutamine) containing 10% foetal calf serum (FCS), 2 mM L-glutamine, penicillin/streptomycin (Pen/Strep; 100 U/mL penicillin+[…] streptomycin), and 1 μg/ml puromycin.
The CHO cell line is a Tat (transcriptional trans activator)-expressing clone from a CHO JRR17.1 cell line that has been transfected with pTat puro plasmid. The media for this cell line is rich medium for mammalian cell culture originally developed at Roswell Park Memorial Institute RPMI1640 (without L-glutamine) containing 10% FCS, 2 mM L-glutamine, 0.5 mg/ml Hygromycin B and 12 µg/ml puromycin. The CHO JRR17.1 line expresses gp160 (JRFL) and is a clone that has been selected for its ability to fuse with a CCR5/CD4 expressing cell line.
Upon cell fusion, Tat present in the CHO cell is able to transactivate the HIV-1 long terminal repeat (LTR) present in the HeLa cell leading to the expression of the β-Galactosidase enzyme. This expression is then measured using a Fluor Ace™ β-Galactosidase reporter assay kit (Bio-Rad cat no. 170-3150). This kit is a quantitative fluorescent assay that determines the level of expression of β-galactosidase using 4-methylumbelliferyl-galactopyranoside (MUG) as substrate. β-Galactosidase hydrolyses the fluorogenic substrate resulting in release of the fluorescent molecule 4-methylumbelliferone (4MU). Fluorescence of 4-methylumbelliferone is then measured on a fluorometer using an excitation wavelength of 360 nm and emission wavelength of 460 nm.
Compounds that inhibit fusion will give rise to a reduced signal and, following solubilisation in an appropriate solvent and dilution in culture medium, a dose-response curve for each compound can be used to calculate IC50 values.

Sequence of HIV-1 fusion (gp160 induced cell-cell fusion; HeLa P4 cell line expressing CCR5 and CD4 / CHO-Tat10 cell line) (P51681 whole entry, the tested form may be a part): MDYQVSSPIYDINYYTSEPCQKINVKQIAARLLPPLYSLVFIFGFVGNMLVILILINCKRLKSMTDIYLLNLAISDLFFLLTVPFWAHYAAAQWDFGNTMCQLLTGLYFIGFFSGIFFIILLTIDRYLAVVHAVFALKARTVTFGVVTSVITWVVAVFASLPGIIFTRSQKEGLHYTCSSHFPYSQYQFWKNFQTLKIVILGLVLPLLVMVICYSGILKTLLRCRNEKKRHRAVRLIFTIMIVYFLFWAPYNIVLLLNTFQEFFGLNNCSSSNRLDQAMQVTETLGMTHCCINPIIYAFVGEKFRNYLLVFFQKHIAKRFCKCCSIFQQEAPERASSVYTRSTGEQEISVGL

`COC(=O)N1CCc2c(nc(C)n2C2CCN(C(C)C[C@H](NC(=O)C3CC(F)(F)C3)c3cccc(F)c3)CC2)C1` (stereo partly drawn) [Example 80, Methyl 1-{1-[(3S)-3-{[(3,3-difluorocyclobutyl)carbonyl]amino}-3-(3-fluorophenyl)-1-methylpropyl]piperidin-4-yl}-2-methyl-1,4,6,7-tetrahydro-5H-imidazo[4,5-c]pyridine-5-carboxylate] and `CC(=O)N1CCc2c(nc(C)n2C2CCN(C(C)C[C@H](NC(=O)C3CC3)c3cccc(F)c3)CC2)C1` (stereo partly drawn) [Example 103] are the same in IC50: 0.2 nM for the first, 0.2 nM for the second.

Going from `CCC(=O)N[C@@H](CC(C)N1CCC(n2c(C)nc3c2CCN(C(=O)OC)C3)CC1)c1cccc(F)c1` (stereo partly drawn) [Example 91] to `Cc1nccn1C1CCN(C(C)C[C@H](NC(=O)C2CCC(F)(F)CC2)c2ccccc2)CC1` (stereo partly drawn) [Example 112, 4,4-Difluoro-N-{(1S)-3-[4-(2-methyl-1H-imidazol-1-yl)piperidin-1-yl]-1-phenylbutyl}cyclohexanecarboxamide], the IC50 falls from 102 nM to 1 nM (100-fold). The second is the more potent here.

Compared with `CC(C)c1noc(C2CCN(C(C)C[C@H](NC(=O)C3CCC3)c3ccccc3)CC2)n1` (stereo partly drawn) [Example 105, N-{(1S)-3-[4-(3-isoPropyl-1,2,4-oxadiazol-5-yl)piperidin-1-yl]-1-phenylbutyl}cyclobutanecarboxamide], `CC(C)c1nccn1C1CCN(C(C)C[C@H](NC(=O)C2CCC(F)(F)CC2)c2ccccc2)CC1` (stereo partly drawn) [Example 111, 4,4-Difluoro-N-{(1S)-3-[4-(2-isopropyl-1H-imidazol-1-yl)piperidin-1-yl]-1-phenylbutyl}cyclohexanecarboxamide] is 470-fold lower in IC50: 94.6 nM for the first, 0.2 nM for the second.

Same assay, conditions: IC50 (nM), HeLa P4 / CHO-Tat10 cells

First: CCC(=O)N[C@@H](CC(C)N1CCC(n2c(C)nc3c2CCN(C(=O)OC)C3)CC1)c1ccccc1 (stereo partly drawn) [Example 92, methyl 2-methyl-1-{1-[(3S)-1-methyl-3-phenyl-3-(propionylamino)propyl]piperidin-4-yl}-1,4,6,7-tetrahydro-5H-imidazo[4,5-c]pyridine-5-carboxylate]
Second: CCC(=O)N[C@@H](CC(C)N1CCC(n2c(C)nc3c2CCN(C(C)=O)C3)CC1)c1cccc(F)c1 (stereo partly drawn) [Example 104, N-[(1S)-3-[4-(5-acetyl-2-methyl-4,5,6,7-tetrahydro-1H-imidazo[4,5-c]pyridin-1-yl)piperidin-1-yl]-1-(3-fluorophenyl)butyl]propanamide]
The IC50 of the first is 2-fold lower: 0.4 nM for the first, 0.8 nM for the second. The first is the more potent here.

In the case of `CC(=O)N1CCc2c(nc(C)n2C2CCN(C(C)C[C@H](NC(=O)C(C)C)c3cccc(F)c3)CC2)C1` (stereo partly drawn) [Example 94, N-[(1S)-3-[4-(5-acetyl-2-methyl-4,5,6,7-tetrahydro-1H-imidazo[4,5-c]pyridin-1-yl)piperidin-1-yl]-1-(3-fluorophenyl)butyl]-2-methylpropanamide], the IC50 is reported as 0.2 nM.
